Experiments:
Assay type in all cases: physicochemical
[1] = physical properties of benzoate esters compared to precursors, Table II
Excerpt: Absence of odor is an important factor in consumer acceptance of cosmetic and toiletry products.

[2] = refractive index of benzoate esters compared to precursors, Table V; conditions: 25° C.
[3] = sunscreen solubility: Benzophenone-3, Table IV A
Excerpt: (§1) These two sunscreens are difficult to dissolve and keep in solution for use in sunscreen formulations for optimal SPF (sun-protection factors). Higher solvency for a sunscreen ingredient is desirable as it allows higher concentrations of the sunscreen active ingredient in a formulation. This advantageously raises the SPF ratings for the formulation. The liquid organic sunscreens that are commonly used are octyl-methoxy cinnamate (OMC) and octyl salicylate (OS).
(§2) Solubility/Solvency Tables IVA and IVB show the solubility and concentrations of the sunscreen ingredient in the novel esters of the invention compared to their precursor raw materials (non-benzoate esters).

[4] = sunscreen solubility: PARSOL 1789, Table IV B
Excerpt: as §1, §2

[5] = Hagman readings (particle size), titanium dioxide dispersion, Table VI A; conditions: TiO2 50%
Procedure: (§3) The novel benzoate esters of the invention were tested for pigment and dye dispersing efficacy. Color pastes were prepared by dispersing dry pigment into the oil phase while hand stirring and then passing each mixture through a three roll mill six times, collecting a 16 oz. sample after each pass. The samples collected were subjected to particle size measurements.

[6] = Hagman readings (particle size), Red No. 6 Barium Lake dispersion, Table VI A; conditions: Red No. 6 Barium Lake 35%
Procedure: as §3

[7] = Hagman readings (particle size), Red No. 21 dispersion, Table VI A; conditions: Red No. 21 35%
Procedure: as §3

[8] = viscosity readings of titanium dioxide dispersions, Table VI B; conditions: Brookfield LVT-D @ 12 RPM, TiO2 50%
[9] = viscosity readings of Red No. 21 dispersions, Table VI B; conditions: Brookfield LVT-D @ 12 RPM, Red No. 21 35%
[10] = 23° C., 10 gms sunscreen in 100 gms mixture
[11] = 30° C., 10 gms sunscreen in 100 gms mixture
[12] = 30° C., 15 gms sunscreen in 100 gms mixture

CCCCCCCCCCCCCCCCOC(=O)CCCCCCC/C=C\C[C@H](O)CCCCCC [CR, Cetyl Ricinoleate, reference compound]
Color [1]: light yellow | S.G. (specific gravity) ([1]; 25° C.): 0.874 | VISCOSITY ([1]; Brookfield Viscometer, Spindle # 1, 10 rpm): 65 cps | REFRACTIVE INDEX ([1]; Table II): 1.4580 | Refractive Index, Typical [2]: 1.4580 | Sunscreen solubility (Benzophenone-3) [3, 10]: + | Sunscreen solubility (Benzophenone-3) [3, 11]: + | Sunscreen solubility (Benzophenone-3) [3, 12]: + | Sunscreen solubility (Parsol 1789) [4, 10]: + | Sunscreen solubility (Parsol 1789) [4, 11]: + | Sunscreen solubility (Parsol 1789) [4, 12]: + | Hagman reading (particle size) ([5]; pass 1): ≤ 93 μm | Hagman reading (particle size) ([5]; pass 2): ≤ 80 μm | Hagman reading (particle size) ([5]; pass 3): ≤ 80 μm | Hagman reading (particle size) ([5]; pass 4): ≤ 76 μm | Hagman reading (particle size) ([5]; pass 5): ≤ 50 μm | Hagman reading (particle size) ([5]; pass 6): ≤ 43 μm | Hagman reading (particle size) ([6]; pass 1): ≤ 49 μm | Hagman reading (particle size) ([6]; pass 2): ≤ 48 μm | Hagman reading (particle size) ([6]; pass 3): ≤ 40 μm | Hagman reading (particle size) ([6]; pass 4): ≤ 38 μm | Hagman reading (particle size) ([6]; pass 5): ≤ 33 μm | Hagman reading (particle size) ([6]; pass 6): ≤ 30 μm | Hagman reading (particle size) ([7]; pass 1): ≤ 39 μm | Hagman reading (particle size) ([7]; pass 2): ≤ 36 μm | Hagman reading (particle size) ([7]; pass 3): ≤ 30 μm | Hagman reading (particle size) ([7]; pass 4): ≤ 26 μm | Hagman reading (particle size) ([7]; pass 5): ≤ 18 μm | Hagman reading (particle size) ([7]; pass 6): ≤ 14 μm | Viscosity reading of dispersion ([8]; pass 1): Out of instrument range | Viscosity reading of dispersion ([8]; pass 2): Out of instrument range | Viscosity reading of dispersion ([8]; pass 3): Out of instrument range | Viscosity reading of dispersion ([8]; pass 4): Out of instrument range | Viscosity reading of dispersion ([8]; pass 5): Out of instrument range | Viscosity reading of dispersion ([8]; pass 6): Out of instrument range | Viscosity reading of dispersion ([9]; pass 1): Out of instrument range | Viscosity reading of dispersion ([9]; pass 2): Out of instrument range | Viscosity reading of dispersion ([9]; pass 3): Out of instrument range | Viscosity reading of dispersion ([9]; pass 4): Out of instrument range | Viscosity reading of dispersion ([9]; pass 5): Out of instrument range | Viscosity reading of dispersion ([9]; pass 6): Out of instrument range

Source: US5959130A, “Castor based benzoate esters” (Finetex, Inc., priority 1997, dated 1999)
